Reference: ChEMBL document CHEMBL5465560, “Selectivity Literature for EUbOPEN Chemogenomic Library” (2024)
One block for each molecule: values may come before it.

Key:
[1] = target: Cyclin-dependent kinase 16 (Homo sapiens) (UniProt Q00536); conditions: at 10 µM
[2] = target: T1, Histone-lysine N-methyltransferase SMYD3 (Homo sapiens) (UniProt Q9H7B4); assay: Selectivity interaction (Methyltransferase screen (radiometric assays, panel of 8 PRMTs, 21 protein lysine methyltransferases, 3 DNA methyltransferases, and one RNA methyltransferase)) EUB0000272b SMYD3
T1 sequence (whole entry): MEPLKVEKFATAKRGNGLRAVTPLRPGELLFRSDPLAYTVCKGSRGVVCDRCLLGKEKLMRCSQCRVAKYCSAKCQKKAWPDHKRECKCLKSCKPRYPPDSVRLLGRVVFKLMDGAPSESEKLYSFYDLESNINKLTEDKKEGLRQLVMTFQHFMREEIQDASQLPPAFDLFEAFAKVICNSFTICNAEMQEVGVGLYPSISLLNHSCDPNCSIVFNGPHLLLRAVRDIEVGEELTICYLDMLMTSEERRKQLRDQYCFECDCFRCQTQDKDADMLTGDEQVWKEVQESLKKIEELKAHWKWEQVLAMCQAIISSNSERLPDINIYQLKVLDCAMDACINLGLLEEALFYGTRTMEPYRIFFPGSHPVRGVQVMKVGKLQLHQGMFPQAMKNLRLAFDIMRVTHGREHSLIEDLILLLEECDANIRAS

[3] = target: Myosin-IIIa (Homo sapiens) (UniProt Q8NEV4); assay: Selectivity interaction (KinomeScan (DiscoverX)) EUB0000595a MYO3A; conditions: at 10 µM
Myosin-IIIa (Homo sapiens), sequence (Q8NEV4 whole entry): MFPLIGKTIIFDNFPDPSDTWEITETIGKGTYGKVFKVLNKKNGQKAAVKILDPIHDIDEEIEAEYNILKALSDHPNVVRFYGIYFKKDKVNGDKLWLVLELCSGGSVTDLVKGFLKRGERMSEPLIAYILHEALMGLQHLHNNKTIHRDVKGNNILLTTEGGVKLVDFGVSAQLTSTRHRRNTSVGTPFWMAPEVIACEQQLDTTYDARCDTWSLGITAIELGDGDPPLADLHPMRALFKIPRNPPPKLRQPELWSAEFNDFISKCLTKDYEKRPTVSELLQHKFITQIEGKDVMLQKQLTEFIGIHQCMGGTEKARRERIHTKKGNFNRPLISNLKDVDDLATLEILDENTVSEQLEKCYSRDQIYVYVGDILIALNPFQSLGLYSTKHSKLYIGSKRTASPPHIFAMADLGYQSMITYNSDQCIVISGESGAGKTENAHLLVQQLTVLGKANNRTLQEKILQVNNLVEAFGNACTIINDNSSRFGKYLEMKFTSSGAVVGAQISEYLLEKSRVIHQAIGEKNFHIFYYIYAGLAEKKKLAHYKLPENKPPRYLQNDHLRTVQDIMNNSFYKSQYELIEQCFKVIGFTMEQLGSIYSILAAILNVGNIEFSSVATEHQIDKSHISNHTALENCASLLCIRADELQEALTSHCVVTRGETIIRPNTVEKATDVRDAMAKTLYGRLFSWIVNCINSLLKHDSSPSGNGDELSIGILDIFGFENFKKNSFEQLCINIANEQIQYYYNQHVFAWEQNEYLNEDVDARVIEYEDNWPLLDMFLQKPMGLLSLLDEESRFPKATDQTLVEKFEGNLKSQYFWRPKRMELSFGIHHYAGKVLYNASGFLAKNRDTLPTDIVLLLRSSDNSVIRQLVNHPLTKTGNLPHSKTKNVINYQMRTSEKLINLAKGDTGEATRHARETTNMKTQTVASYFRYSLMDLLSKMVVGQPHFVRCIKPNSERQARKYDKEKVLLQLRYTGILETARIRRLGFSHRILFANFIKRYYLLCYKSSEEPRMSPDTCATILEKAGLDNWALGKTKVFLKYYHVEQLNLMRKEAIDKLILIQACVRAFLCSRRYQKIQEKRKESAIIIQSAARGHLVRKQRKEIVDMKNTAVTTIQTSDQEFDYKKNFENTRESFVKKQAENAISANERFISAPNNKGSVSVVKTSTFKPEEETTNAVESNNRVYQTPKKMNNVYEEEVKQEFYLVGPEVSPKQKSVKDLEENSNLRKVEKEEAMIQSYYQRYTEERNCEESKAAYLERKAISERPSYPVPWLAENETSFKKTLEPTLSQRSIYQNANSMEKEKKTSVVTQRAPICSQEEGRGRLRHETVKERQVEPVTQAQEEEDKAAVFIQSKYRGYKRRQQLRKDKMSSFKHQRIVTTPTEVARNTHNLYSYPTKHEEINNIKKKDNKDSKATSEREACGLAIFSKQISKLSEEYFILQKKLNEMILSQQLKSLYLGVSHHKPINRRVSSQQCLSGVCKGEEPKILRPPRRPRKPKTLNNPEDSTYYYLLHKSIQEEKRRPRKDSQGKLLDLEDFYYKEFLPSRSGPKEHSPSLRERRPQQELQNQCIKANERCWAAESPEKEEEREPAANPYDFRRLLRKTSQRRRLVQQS

[4] = target: T2, Serine/threonine-protein kinase TAO2 (Homo sapiens) (UniProt Q9UL54); assay: Selectivity interaction (ProQinase) EUB0000171b TAOK2
T2 sequence (whole entry): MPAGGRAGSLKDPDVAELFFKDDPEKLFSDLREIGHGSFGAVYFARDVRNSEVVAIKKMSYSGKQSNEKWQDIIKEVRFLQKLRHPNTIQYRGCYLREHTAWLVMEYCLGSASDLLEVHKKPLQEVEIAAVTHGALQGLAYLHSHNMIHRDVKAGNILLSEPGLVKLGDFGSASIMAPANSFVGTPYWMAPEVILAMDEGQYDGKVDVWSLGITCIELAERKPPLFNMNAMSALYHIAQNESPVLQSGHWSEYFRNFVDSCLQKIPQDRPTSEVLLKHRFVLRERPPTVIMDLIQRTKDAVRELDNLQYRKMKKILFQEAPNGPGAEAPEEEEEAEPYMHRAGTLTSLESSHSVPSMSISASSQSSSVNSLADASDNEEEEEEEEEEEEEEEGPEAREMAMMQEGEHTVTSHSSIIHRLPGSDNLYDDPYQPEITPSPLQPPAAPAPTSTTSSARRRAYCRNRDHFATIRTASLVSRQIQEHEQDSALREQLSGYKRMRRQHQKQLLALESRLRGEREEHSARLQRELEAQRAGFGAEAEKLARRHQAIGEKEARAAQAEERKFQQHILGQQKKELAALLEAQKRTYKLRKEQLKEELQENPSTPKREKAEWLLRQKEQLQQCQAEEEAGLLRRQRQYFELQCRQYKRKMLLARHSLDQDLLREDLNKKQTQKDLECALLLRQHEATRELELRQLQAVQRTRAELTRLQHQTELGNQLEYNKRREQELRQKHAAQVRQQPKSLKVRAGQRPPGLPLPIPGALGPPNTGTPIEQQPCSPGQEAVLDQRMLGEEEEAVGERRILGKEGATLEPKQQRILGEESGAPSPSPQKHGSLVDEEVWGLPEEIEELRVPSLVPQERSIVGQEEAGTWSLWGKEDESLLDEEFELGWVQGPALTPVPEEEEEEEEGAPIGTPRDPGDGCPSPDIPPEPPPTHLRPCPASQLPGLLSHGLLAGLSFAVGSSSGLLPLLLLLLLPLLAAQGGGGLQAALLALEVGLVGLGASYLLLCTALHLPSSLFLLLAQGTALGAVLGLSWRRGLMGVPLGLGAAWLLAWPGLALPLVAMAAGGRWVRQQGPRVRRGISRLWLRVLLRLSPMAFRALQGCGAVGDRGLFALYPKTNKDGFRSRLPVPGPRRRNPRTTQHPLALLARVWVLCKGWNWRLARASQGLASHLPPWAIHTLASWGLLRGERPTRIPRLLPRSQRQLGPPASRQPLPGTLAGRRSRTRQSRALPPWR

[5] = target: T3, Mitogen-activated protein kinase kinase kinase 7 (Homo sapiens) (UniProt O43318); assay: Selectivity interaction (KinomeScan (DiscoverX)) EUB0000666a MAP3K7; conditions: at 10 µM
T3 sequence (whole entry): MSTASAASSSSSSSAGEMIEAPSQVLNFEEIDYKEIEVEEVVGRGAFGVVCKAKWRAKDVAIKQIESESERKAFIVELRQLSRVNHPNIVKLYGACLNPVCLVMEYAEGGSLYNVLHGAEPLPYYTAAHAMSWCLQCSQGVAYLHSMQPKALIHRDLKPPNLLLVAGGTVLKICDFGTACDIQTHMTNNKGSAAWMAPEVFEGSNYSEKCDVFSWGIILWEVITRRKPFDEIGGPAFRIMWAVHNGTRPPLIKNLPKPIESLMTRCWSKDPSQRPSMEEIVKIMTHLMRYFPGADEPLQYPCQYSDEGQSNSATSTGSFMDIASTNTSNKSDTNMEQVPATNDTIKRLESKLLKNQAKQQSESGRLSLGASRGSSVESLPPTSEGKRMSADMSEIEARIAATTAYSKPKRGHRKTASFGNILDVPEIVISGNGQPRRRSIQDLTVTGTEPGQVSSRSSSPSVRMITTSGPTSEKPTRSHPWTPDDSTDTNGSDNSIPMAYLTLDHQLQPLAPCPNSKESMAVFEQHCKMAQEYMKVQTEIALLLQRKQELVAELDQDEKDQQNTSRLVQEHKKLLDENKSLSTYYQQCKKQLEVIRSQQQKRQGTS

[6] = target: Serine/threonine-protein kinase 32B (Homo sapiens) (UniProt Q9NY57); assay: Selectivity interaction (KinomeScan (DiscoverX)) EUB0000092b STK32B; conditions: at 10 µM
Serine/threonine-protein kinase 32B (Homo sapiens), sequence (Q9NY57 whole entry): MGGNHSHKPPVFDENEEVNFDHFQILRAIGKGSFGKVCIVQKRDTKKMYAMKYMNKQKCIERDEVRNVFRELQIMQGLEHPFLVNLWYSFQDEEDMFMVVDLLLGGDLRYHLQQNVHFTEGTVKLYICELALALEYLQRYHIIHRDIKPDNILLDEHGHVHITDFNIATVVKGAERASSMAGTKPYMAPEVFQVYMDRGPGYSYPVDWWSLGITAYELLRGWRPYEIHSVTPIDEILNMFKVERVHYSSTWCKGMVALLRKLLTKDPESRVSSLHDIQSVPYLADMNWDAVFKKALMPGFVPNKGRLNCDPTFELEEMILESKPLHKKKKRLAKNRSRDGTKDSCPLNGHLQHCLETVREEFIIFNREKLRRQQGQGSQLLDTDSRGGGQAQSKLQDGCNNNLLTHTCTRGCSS

Cyclin-dependent kinase 16 (Homo sapiens), sequence (Q00536 whole entry): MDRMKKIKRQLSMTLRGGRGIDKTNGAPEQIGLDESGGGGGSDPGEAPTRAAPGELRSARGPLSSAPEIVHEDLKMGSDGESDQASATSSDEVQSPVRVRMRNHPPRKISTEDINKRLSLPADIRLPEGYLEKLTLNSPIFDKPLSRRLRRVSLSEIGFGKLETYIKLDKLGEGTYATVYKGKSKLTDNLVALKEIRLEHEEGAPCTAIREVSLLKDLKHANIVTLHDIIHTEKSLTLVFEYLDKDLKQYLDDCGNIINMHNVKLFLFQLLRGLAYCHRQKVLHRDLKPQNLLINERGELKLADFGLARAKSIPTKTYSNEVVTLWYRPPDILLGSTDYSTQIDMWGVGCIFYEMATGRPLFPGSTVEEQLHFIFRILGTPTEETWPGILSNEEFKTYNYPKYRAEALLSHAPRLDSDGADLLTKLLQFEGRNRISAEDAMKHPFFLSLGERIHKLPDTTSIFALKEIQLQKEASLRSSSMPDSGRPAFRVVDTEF

Compound: Cc1cc(C)cc([C@H]2c3cc(C)ccc3NC(=O)CN2C(=O)c2ccc(Br)s2)c1
% of activity ([2]; at 1 µM): 97.3%
% of activity ([2]; at 10 µM): 102%

Compound: COCC(=O)NC/C=C/c1ccc2ncnc(Nc3ccc(Oc4ccc(C)nc4)c(C)c3)c2c1 [CP-724714]
% of control [3]: 75%

Compound: O=C(NOC[C@H](O)CO)c1ccc(F)c(F)c1Nc1ccc(I)cc1F
% of control [5]: 75%

Compound: CCC(=O)N1CCN(c2ccc(-n3c(=O)ccc4cnc5ccc(-c6cnc7ccccc7c6)cc5c43)cc2C(F)(F)F)CC1
% of control [6]: 87%

Further lines, results first:

% of control [1]: 100%
Compound: CCN(CC)CCCCNc1ncc2cc(-c3cc(OC)cc(OC)c3)c(NC(=O)NC(C)(C)C)nc2n1

% of control ([4]; at 1 µM): 38%
% of control ([4]; at 5 µM): 16%
Compound: C=CC(=O)Nc1cccc(C(=O)Nc2ccc(Nc3cc(-c4[nH]c(SC)nc4C)ccn3)cc2)c1
